Source: patent US20060275826A1, “Artificial antibody comprising complementary peptide” (priority 2003, published 2006)
No end group written: not given here.

Experiments:
[1] = target: T1, Pro-carboxypeptidase R (ProCPR) (Homo sapiens, UniProt Q96IY4); experiment: Activation of ProCPR to CPR by thrombin-thrombomodulin (T/TM) complex, hippuryl-L-arginine substrate; type: biochemical; conditions: 1 μM of peptide
T1 sequence (Q96IY4 23-423 limits assumed): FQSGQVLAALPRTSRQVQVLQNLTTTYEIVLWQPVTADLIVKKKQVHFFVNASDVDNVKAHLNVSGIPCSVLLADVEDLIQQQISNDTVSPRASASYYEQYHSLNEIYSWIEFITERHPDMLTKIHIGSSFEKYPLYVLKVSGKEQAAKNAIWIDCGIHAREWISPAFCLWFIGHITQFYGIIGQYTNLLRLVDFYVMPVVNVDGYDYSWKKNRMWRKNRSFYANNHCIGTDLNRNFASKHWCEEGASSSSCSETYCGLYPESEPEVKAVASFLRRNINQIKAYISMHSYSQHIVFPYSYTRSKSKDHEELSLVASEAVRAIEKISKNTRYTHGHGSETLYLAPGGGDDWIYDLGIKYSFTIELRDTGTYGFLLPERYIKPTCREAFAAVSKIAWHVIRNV
From the text: Pro-carboxypeptidase R (abbreviated as ProCPR hereinafter) is converted into active carboxypeptidase R (abbreviated as CPR hereinafter) by trimming a sequence from an amino terminal to arginine 92 with a trypsin-like enzyme such as thrombin and plasmin. A complementary peptide corresponding to the amino acid sequence comprising 30, 24, 20, 15 or 11 amino acids from amino acid 87 counted from the amino terminal of the ProCPR was automatically designed using the analysis program MIMETIC of the invention, and the peptides shown in Table 2 were designed. An action on the activation reaction of ProCPR by a thrombin-thrombomodulin complex (abbreviated as T/TM complex hereinafter) was analyzed with respect to the peptides (the peptides in notes (1) and (2) in Table 2) comprising 20 and 15 amino acids of the complementary peptides described above. The designed peptides were synthesized by a conventional solid state method by which 9-fluorenylmethoxycarbonyl (Fmoc) amino acids are sequentially linked using a peptide synthesizer (trade name: AMS 422 Multiple Peptide Synthesizer, manufactured by ABiMED Co.) The synthesized peptide was released by a conventional method, and protecting groups were removed. The peptide obtained was retrieved by ether precipitation, and was purified by reversed phase HPLC after removing ether by drying. The purified peptides comprising 20 and 15 amino acids were allowed to react with ProCPR for 10 minutes at room temperature, followed by allowing the T/TM complex to react. After a reaction for 45 minutes at 37° C. by adding hippuril-L-arginine which is substrate of CPR, free hippuric acid was measured according to a reported method (Komura, H., et al., Effect of Anticoagulants in Colorimetric Assay for Basic Carboxypeptidase, Microbiol. Immunol., 46: 115-117, 2002). When 20-mer peptide and 15-mer peptide were added, activation of ProCPR to CPR with the T/TM complex was suppressed by adding 1 μM of respective peptides. […]

[2] = target: T2, ProCPR (Homo sapiens, UniProt Q96IY4); experiment: Plate ELISA: VGG-coated plate, human plasma containing ProCPR, biotin-labeled 10G1 antibody; type: binding; conditions: plate coated with VGG, diluted human plasma
T2 construct: diluted human plasma containing ProCPR; from tissue; host or cells: human plasma
T2 sequence (Q96IY4 115-423): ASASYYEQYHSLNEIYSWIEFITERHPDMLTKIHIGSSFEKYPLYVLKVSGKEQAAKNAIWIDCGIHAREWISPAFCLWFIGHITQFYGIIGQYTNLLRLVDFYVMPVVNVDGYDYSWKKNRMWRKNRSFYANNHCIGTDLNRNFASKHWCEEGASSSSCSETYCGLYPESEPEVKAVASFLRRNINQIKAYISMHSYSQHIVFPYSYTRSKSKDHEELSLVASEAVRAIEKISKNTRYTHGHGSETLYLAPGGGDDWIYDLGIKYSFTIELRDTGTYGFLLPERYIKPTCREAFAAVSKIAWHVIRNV
Experimental: After coating the plate with VGG and washing the plate, diluted human plasma containing ProCPR was added to the plate and was allowed to react for 1 hour at room temperature. After removing excess plasma by washing the plate, 10G1 as a […] was added followed by allowing it to react for 1 hour at room temperature. Excess 10G1 antibody was removed by washing the plate, and remaining 10G1 antibody was allowed to react by adding peroxidase-labeled avidin. After removing unreacted avidin by washing, the reaction solution was made to develop a color by a conventional method depending on the strength of the enzyme reaction of peroxidase by adding a peroxidase color development reagent, and the intensity of the color was measured with a plate reader.

[3] = target: T3, ProCPR (Homo sapiens, UniProt Q96IY4); experiment: Surface plasmon resonance analyzer (Biacore) reactivity to ProCPR; type: binding
T3 sequence (Q96IY4 23-423 limits assumed): T1 sequence (Q96IY4 23-423 limits assumed)

[4] = target: T4, reverse transcriptase (RT) of human immunodeficiency virus-1 (HIV-1) (Human immunodeficiency virus type 1 group M subtype B, UniProt P04585); experiment: HIV-RT activity assay (primer tRNALys3 elongation on viral genome RNA, autoradiography); type: biochemical; conditions: for IC50: 50% suppression concentrations against RT, 50 ng HIV-RT, 37° C., 15 minutes; for suppressing activity against RT activity: result in words
T4 construct: reverse transcriptase (abbreviated as RT hereinafter)
From the text: Complementary peptides against peptides at each site of reverse transcriptase (abbreviated as RT hereinafter) of a pathogenic virus of AIDS, human immunodeficiency virus-1 (HIV-1), were automatically designed using an analysis program (MIMETIC), and the peptides shown in Table 1 were designed. The designed peptides were synthesized by a conventional solid phase method by allowing 9-fluorenylmethoxycarbonyl (Fmoc) amino acids to sequentially bind using a peptide synthesizer (trade name: AMS 422 Multiple Peptide Synthesizer, manufactured by ABiMED Co.). The synthesized peptide was released from the solid support by a conventional method, and protective groups were removed. The peptide obtained was recovered by ether precipitation, and was purified with reversed phase HPLC after removing ether by drying. A culture supernatant of PLB cells (established human lymphocyte strain) infected with HIV-1 was placed on a top layer of layered 65% and 15% sucrose solutions in a ultracentrifuge tube, and HIV-1 particles were retrieved by ultracentrifugation for 1 hour at 26,500 rpm. Virus RNA was extracted by a guanidine isothiocyanate method (Chomezynski, P. and Sacchi, N., RNA Isolation from Cultured cells, Analytical Biochemistry, 162: 156-159, 1987), and the extract was used by dissolving in 5 mM Tris buffer (pH 7.5). The amount of the whole length virus genome RNA contained in the total RNA sample was quantified according to a conventional ribonuclease protection method (Kaye, J. F. et al., Cis-acting Sequences Involved in Human Immunodeficiency Virus Type 1 RNA Packaging, J. Virol, 69: 6588-6592, 1995; and Huang, Y. et al., The Role of Nucleocapsid and U5 stem/A rich Loop Sequences in tRNA (3Lys) Genomic Placement and Initiation of Reverse Transcription in Human Immunodeficiency Virus Type 1, J. Virol., 72: 3907-3915, 1997). The virus genome binds to tRNA^Lys3 in the cell, and can be used for measuring RT activity. The RNA genome of about 5×10^7 molecules was allowed to react with 50 ng of HIV-RT, 10 units of […] and dNTP's (deoxynucleic acid) at 37° C. for 15 minutes in 20 μl of RTbuffer (50 mMTris-HCl, pH 7.5, 60 mM KCl, 3 mM MgCl2 and 10 mM DTT). The sequence at the tip of the molecule comprises six bases of CTGCTA. One base was added to tRNA^Lys3 using ^32P-dCTP with a radioactivity of 5 μci, and 6 bases were further added by allowing 0.2 mM of dCTP, 0.2 mM of dTTP, 5 μCi of ^32p-dGTP and 0.05 mM of ddATP to react. The elongated primer was retrieved by ethanol precipitation, and was analyzed by auto-radiography through electrophoresis on 6% polyacrylamide gel containing 7 M urea.

[5] = target: T5, HIV transcriptase (HIV-RT) (Human immunodeficiency virus type 1 group M subtype B, UniProt P04585); experiment: Sandwich ELISA detecting HIV-RT with complementary peptides as artificial antibody peptides; type: binding; conditions: wells coated with ESLA 2340, detection with biotin-labeled TLMA 2993 and peroxidase-labeled avidin
T5 construct: reverse transcriptase (abbreviated as RT hereinafter)
Experimental: Wells of a 96 well plate were coated with ESLA 2340 in advance. After adding a diluted solution of HIV-RT in each well and allowing the plate to stand overnight at 4° C., the plate was washed and biotin-labeled TLMA 2993 was added to each well. The plate was allowed to stand for 1 hour at room temperature. After washing the plate again, peroxidase-labeled avidin was added to allow it to react at room temperature for 1 hour. After washing the plate to remove unreacted avidin, a color development reaction was performed by a conventional method at room temperature by adding a color developing reagent of peroxidase.

Sequence	suppression of activation of ProCPR to CPR with the T/TM complex [1]	IC50 [4] [µM]	color development depending on concentration of HIV-RT (sandwich ELISA) [5]	suppressing activity against RT activity [4]	further results
VSRGRRRDRRILMII [15-mer peptide, complementary (mimetic) peptide to ProCPR positions 87-101]	suppressed				
VGGRRTRARRVLLLVLTETH [complementary (mimetic) peptide to ProCPR positions 87-106]	confirmed to suppress activation of ProCPR				color development depending on concentration of plasma containing ProCPR (ELISA) [2]: color was developed depending on the concentration of the plasma; suppression of activation of ProCPR to CPR with the T/TM complex ([1]; listed as 20-mer peptide): suppressed; reactivity to ProCPR by surface plasmon resonance [3]: confirmed to be reactive to ProCPR
PSTWPTFLKFQLK [PSTW1594, PSTWPTFLKFQLK]		15			
ESLALYKSLQQSEMLLELEL [ESLA2340]		17	A color was developed depending on the concentration of HIV-RT	confirmed to suppress the activity of transcriptase	
TLMALELKGKLLLAGLAPSAFLPLSFPEL [TLMA2993]		15	A color was developed depending on the concentration of HIV-RT	confirmed to suppress the activity of transcriptase	
